Columns and labels:
[1] = Abergel et al., Inorganic chemistry 2009; given for comparison; cited from earlier work
[2] = Deblonde et al. 2013; Sturzbecher-Hoehne et al. 2015; cited from earlier work
[3] = same conditions; Abergel et al., Inorganic chemistry 2009; cited from earlier work
[4] = Eu(III) complex formation constants by incremental spectrophotometric titration; assay type: binding
Procedure: (§1) Metal, Chelator Solutions. The trivalent lanthanide Ln(III) working stock solutions were prepared in standardized 0.1 M HCl. A Zr(IV) stock solution was prepared by dissolving ZrCl4 in 3.0 M H2SO4, to prevent hydrolysis. The metal salt ZrCl4 was handled and stored in a glovebox kept under inert atmosphere. The Zr(IV) stock solution was standardized against EDTA, with xylene orange as the indicator (Welcher, F. J. The analytical uses of ethylenediamine tetraacetic acid; 1958). A Th(IV) stock solution was prepared in 0.1 M H2SO4. Stock solutions (4 mM) of Ent, and 3,4,3-LI(CAM) were prepared by direct dissolution of a weighed portion of chelator in DMSO and aliquots were removed prior to each set of experiments.
(§2) Solution Thermodynamics. All titrant solutions were degassed by boiling for 1 h while being purged under Ar. Carbonate-free 0.1 M KOH was prepared from concentrate (J.T Baker Dilut-It) and was standardized by titrating against 0.1 M potassium hydrogen phthalate (99.95%, Sigma Aldrich). Solutions of 0.1 M HCl were similarly prepared and were standardized by titrating against TRIS (99.9%, J.T. Baker). The glass electrode (Metrohm-Micro Combi-response to [H+]) used for the pH measurements was calibrated at 25.0° C. and at an ionic strength of 0.1 M (KCl) before each potentiometric or spectrophotometric titration. The calibration data were analyzed using the program GLEE (Gans & O'Sullivan, Talanta, 2000, 51 (1): 33-37) to refine for the E° and slope. All thermodynamic measurements were conducted at 25.0° C., in 0.1 M KCl supporting electrolyte under positive Ar gas pressure. The automated titration system was controlled by an 867 pH Module (Metrohm). […]
(§3) Incremental Spectrophotometric Titrations. […] For the 3,4,3-LI(CAM) protonation (and Eu(III)-3,4,3-LI(CAM) complexes), titrations were performed with an initial concentration of 50 μM of 3,4,3-LI(CAM) (and 50 μM of Eu(III)) resulting in absorbance values included between 0 and 1.0 throughout the titration. […]

[5] = Th(IV) complex formation constants by spectrophotometric competition titration in the presence of DTPA; assay type: binding
Procedure: as §1, §2, §3

[6] = Zr(IV) complex formation constants by spectrophotometric competition titration in the presence of DTPA; assay type: binding
Procedure: as §1, §2, §3

| SMILES | overall acidity ΣpKa5-8 [1] | pH at which 4+ metal complexes are formed [2] | pH at which Eu(III) species already appear [3] | log β110, stability constant of Eu(III) complex ([4]; I=0.1 M (KCl), T=25° C.) | only Eu(III) species present at pH 7.4 ([4]; pH 7.4, speciation diagram, 1 equivalent of Eu(III)) | pH at which Eu(III) complexation starts ([4]; speciation diagram, 1 equivalent of Eu(III), [Eu]=[CAM]=10 μM, T=25° C., I=0.1 M, Hyss) | log β110, stability constant of Th(IV) complex ([5]; I=0.1 M (KCl), T=25° C.) | predominant Th(IV) species at physiological pH ([5]; pH 7.4, speciation diagram, 1 equivalent of Th(IV)) | pH at which Th(IV) complexes start forming ([5]; speciation diagram, 1 equivalent of Th(IV), [Th]=[CAM]=10 μM, T=25° C., I=0.1 M, Hyss) | log β110, stability constant of Zr(IV) complex ([6]; I=0.1 M (KCl), T=25° C.) | predominant Zr(IV) species at physiological pH ([6]; pH 7.4, speciation diagram, 1 equivalent of Zr(IV)) | pH at which Zr(IV) complexes start forming ([6]; speciation diagram, 1 equivalent of Zr(IV), [Zr]=[CAM]=10 μM, T=25° C., I=0.1 M, Hyss) |
| --- | --- | --- | --- | --- | --- | --- | --- | --- | --- | --- | --- | --- |
| O=C(NCCCN(CCCCN(CCCNC(=O)c1cccc(=O)n1O)C(=O)c1cccc(=O)n1O)C(=O)c1cccc(=O)n1O)c1cccc(=O)n1O [3,4,3-LI(1,2-HOPO)] | 21.2 | < 0 | 1 |  |  |  |  |  |  |  |  |  |
| O=C(NCCCN(CCCCN(CCCNC(=O)c1cccc(O)c1O)C(=O)c1cccc(O)c1O)C(=O)c1cccc(O)c1O)c1cccc(O)c1O [3,4,3-LI(CAM)] |  |  |  | 29.7 | [Eu^IIILH]^4− | 5 | 47.7 | [MIVLH]^3− and [MIVL]^4− | ~3 | 57.3 | [MIVLH]^3− and [MIVL]^4− | ~3 |

— US12479792B2, “Compositions of chelating molecules” (The Regents of the University of California, priority 2016, dated 2025)
